PMC11488110 (Theranostics, 2024)
pEC50: −log10 of the molar value.

What was measured:
Assay type in all cases: cell-based
hPPARα = biological target: T1, hPPARα (Homo sapiens, UniProt Q07869); experiment: In vitro co-transfection (PPRE-luciferase) assay in CV-1 cells, hPPARα; conditions: 24 h, read-out: Potency (EC50) hPPARα
T1 sequence (Q07869 1-468): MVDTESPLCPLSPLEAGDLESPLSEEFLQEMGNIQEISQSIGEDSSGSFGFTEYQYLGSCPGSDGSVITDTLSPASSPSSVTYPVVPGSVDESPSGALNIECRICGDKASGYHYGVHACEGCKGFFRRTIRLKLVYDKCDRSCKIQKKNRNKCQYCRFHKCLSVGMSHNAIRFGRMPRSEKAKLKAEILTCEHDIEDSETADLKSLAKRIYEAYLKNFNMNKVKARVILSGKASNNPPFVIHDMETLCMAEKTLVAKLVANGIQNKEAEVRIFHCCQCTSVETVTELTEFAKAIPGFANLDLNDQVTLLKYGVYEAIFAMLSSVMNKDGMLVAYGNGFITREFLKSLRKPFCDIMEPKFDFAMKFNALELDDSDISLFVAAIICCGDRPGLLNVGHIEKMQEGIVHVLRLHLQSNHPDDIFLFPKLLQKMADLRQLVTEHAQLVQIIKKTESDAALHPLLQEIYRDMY

hPPARδ = biological target: T2, hPPARδ (Homo sapiens, UniProt Q03181); experiment: In vitro co-transfection (PPRE-luciferase) assay in CV-1 cells, hPPARδ
T2 construct: expressed in transfected cells; host or cells: CV-1 monkey kidney cells
T2 sequence (Q03181 1-441): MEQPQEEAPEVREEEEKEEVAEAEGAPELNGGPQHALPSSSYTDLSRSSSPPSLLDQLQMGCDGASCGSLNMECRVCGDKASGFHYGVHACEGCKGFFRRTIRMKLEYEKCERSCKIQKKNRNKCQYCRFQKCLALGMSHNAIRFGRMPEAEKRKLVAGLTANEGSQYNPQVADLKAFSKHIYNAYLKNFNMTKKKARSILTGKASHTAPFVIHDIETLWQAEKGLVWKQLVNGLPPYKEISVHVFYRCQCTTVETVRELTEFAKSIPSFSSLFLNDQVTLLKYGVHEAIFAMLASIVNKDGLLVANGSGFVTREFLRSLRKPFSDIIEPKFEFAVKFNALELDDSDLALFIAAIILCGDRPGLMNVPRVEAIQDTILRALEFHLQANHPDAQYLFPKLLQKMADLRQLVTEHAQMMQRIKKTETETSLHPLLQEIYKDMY

primary mouse astrocytes [1] = experiment: Cytotoxicity assay (EZ-Cytox) in primary mouse astrocytes; conditions: up to 30 μM, 24 h
primary mouse astrocytes [2] = experiment: LPS/IFNγ-induced inflammatory responses in primary mouse astrocytes
[3] = tested on: PPARδ target genes (Pdk4, Angptl4, Cd36); experiment: qRT-PCR of PPARδ target genes in BV-2 microglia and mouse cortex; conditions: in vitro (BV-2, 24 h) and in vivo (cortex)
Protocol: Total RNA was isolated using TRIzol® (Invitrogen). Genomic DNA was removed and complementary DNA was synthesized from 500 ng total RNA using the iScript™ gDNA Clear cDNA Synthesis Kit (Bio-Rad). Real-time PCR was performed using the CFX Connect™ Real-Time PCR Detection System (Bio-Rad) using iQ™ SYBR® Green Supermix (Bio-Rad). The hypoxanthine phosphoribosyltransferase (Hprt) was used to normalize mRNA expression levels. Primer sequences used are described in Table S6.
Figure S8. 5a induces transcriptional activation of PPAR δ targ et genes in vitro an d in vivo.
(A-B) qRT-PCR anal ysi s of relative mRNA expression of Ppard and its downstream t arget genes, including Pdk4 , Angptl4, and Cd36. (A) BV-2 microglia were treated with 5a or […]
treated control (one -wa y ANOVA with Dunnett’s test). (B) Cortical homogenates from 10 - month- old WT and APP/PS1 mice treated with vehicle or 5a (30 m g/kg/day for 10 da ys, p.o ) were used for anal ysis (n = 3–4 mice per group). *P < 0.05 and ****P < 0.0001; n.s., not significant (one-wa y ANOVA with Tukey’s test). Hprt mRNA levels were used to normalize the expression of each gene.Data are p resented as mean ± SEM. GW: GW501516.
(1 picture or pasted object on this page, not shown here)

Q: With `Cc1cc(SCc2[se]c(-c3ccc(C(F)(F)F)cc3)nc2C)ccc1OCC(=O)O` [Compound 5a, {2-Methyl-4-[4-methyl-2-(4-trifluoromethyl-phenyl)-selenazol-5-yl-methylsulfanyl]-phenoxy}-acetic acid] as the molecule, how does the pEC50 (hPPARα) read?
A: Its pEC50 is < 5.00.

Q: And the pEC50 (hPPARδ; co-transfection assay, CV-1 cells, 24 h, read-out: Potency (EC50) hPPARδ)?
A: Its pEC50 is 9.15.

Q: What about the “Selectivity index hPPARα/hPPARδ” value (hPPARδ; ratio EC50(hPPARα)/EC50(hPPARδ)) of the same molecule?
A: Its value is >14000.

Q: And the “Selectivity index hPPARγ/hPPARδ” value (hPPARδ; ratio EC50(hPPARγ)/EC50(hPPARδ))?
A: The value was >14000.

Q: What about the “Cytotoxicity in primary astrocytes” value (primary mouse astrocytes [1]) of the same molecule?
A: Its value is “no cytotoxicity”.

Q: And the “LPS/IFNγ-induced NO release” value (primary mouse astrocytes [2]; primary astrocytes)?
A: Its value is “significantly reduced NO release”.

Q: And the “LPS/IFNγ-induced production of TNF-α, IL-1β and IL-6” value (primary mouse astrocytes [2]; primary astrocytes)?
A: The value was “suppressed the production of pro-inflammatory cytokines”.

Q: And the “Anti-inflammatory effects on astrocytes compared with GW501516” value (primary mouse astrocytes [2]; same concentration)?
A: Its value is “superior to those of GW501516”.

Q: What about the “Transcription of PPARδ target genes Pdk4, Angptl4, Cd36” value [3] of the same molecule?
A: Its value is “induced transcriptional activation”.
